# Laboratory results: patent US20150306049A1, “IMMEDIATE RELEASE FORMULATIONS OF CINACALCET” (K.H.S. PHARMA HOLDING GMBH, priority 2012, published 2015)
# Read-outs that look alike come from different tables or passages of the source.
# Settings: for % Dissolution: 200 mg in 900 ml 0.1 N HCl, 37.0°C, 75 rpm
# Description: 200mg of cinacalcet HCl of different D50 values was dropped into a vessel containing 900 ml of dissolution medium (0.1 N HCl) at 37.0+/−0.5° C. and stirred at 75 rpm.
smiles,measurement,setting,value
C[C@@H](NCCCc1cccc(C(F)(F)F)c1)c1cccc2ccccc12.Cl [cinacalcet HCl],solubility (dissolution) compared with larger particle sizes,,much lower solubility
same,% Dissolution,"D50 = 20 μm, 0 min, D50 = 89 μm after 60 min set to 100%",0%
same,% Dissolution,"D50 = 20 μm, 15 min, D50 = 89 μm after 60 min set to 100%",24%
same,% Dissolution,"D50 = 20 μm, 30 min, D50 = 89 μm after 60 min set to 100%",52%
same,% Dissolution,"D50 = 20 μm, 45 min, D50 = 89 μm after 60 min set to 100%",74%
same,% Dissolution,"D50 = 20 μm, 60 min, D50 = 89 μm after 60 min set to 100%",86%
same,% Dissolution,"D50 = 82 μm, 0 min, D50 = 89 μm after 60 min set to 100%",0%
same,% Dissolution,"D50 = 82 μm, 15 min, D50 = 89 μm after 60 min set to 100%",90%
same,% Dissolution,"D50 = 82 μm, 30 min, D50 = 89 μm after 60 min set to 100%",96%
same,% Dissolution,"D50 = 82 μm, 45 min, D50 = 89 μm after 60 min set to 100%",98%
same,% Dissolution,"D50 = 82 μm, 60 min, D50 = 89 μm after 60 min set to 100%",98%
same,% Dissolution,"D50 = 89 μm, 0 min, D50 = 89 μm after 60 min set to 100%",0%
same,% Dissolution,"D50 = 89 μm, 15 min, D50 = 89 μm after 60 min set to 100%",87%
same,% Dissolution,"D50 = 89 μm, 30 min, D50 = 89 μm after 60 min set to 100%",98%
same,% Dissolution,"D50 = 89 μm, 45 min, D50 = 89 μm after 60 min set to 100%",99%
same,% Dissolution,"D50 = 89 μm, 60 min, set to 100%",100%
